Assay results published in ChEMBL document CHEMBL3124857, “Encoded library technology as a source of hits for the discovery and lead optimization of a potent and selective class of bactericidal direct inhibitors of Mycobacterium tuberculosis InhA” (J Med Chem, 2014).
Values after ≈ are worked out from the molar mass of the structure shown. Active and inactive are the calls of the source. The calls are words filed in the database; no cut-off is given here.

Assays:
[1] = test system: Mycobacterium tuberculosis; assay: Antitubercular activity against wild type Mycobacterium tuberculosis H37Rv ATCC 25618 assessed as growth inhibition after 6 days by resazurin dye-based assay; assay type: functional; settings: for MIC90: H37Rv ATCC 25618, 144 h
[2] = target: T1, Enoyl-[acyl-carrier-protein] reductase [NADH] (Mycobacterium tuberculosis, UniProt P9WGR1); assay: Inhibition of Mycobacterium tuberculosis full length biotinylated InhA (270 amino acids) using DDCoA as substrate assessed as NADH oxidation by fluorimetric analysis
T1 sequence (P9WGR1 whole entry): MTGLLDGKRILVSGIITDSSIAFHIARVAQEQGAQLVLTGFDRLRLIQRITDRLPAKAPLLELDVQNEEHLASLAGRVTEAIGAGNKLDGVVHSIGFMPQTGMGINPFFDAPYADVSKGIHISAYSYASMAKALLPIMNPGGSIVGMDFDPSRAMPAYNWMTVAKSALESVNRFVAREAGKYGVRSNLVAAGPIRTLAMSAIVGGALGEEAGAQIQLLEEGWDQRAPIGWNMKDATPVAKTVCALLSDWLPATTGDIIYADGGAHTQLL

[3] = Kinetic solubility of the compound after 1 hr by CLND assay; assay type: physicochemical; settings: 1 h
[4] = Drug degradation assessed as formation of 2-((2S,4R)-1-(benzofuran-3-carbonyl)-4-(3-ethyl-1-methyl-1H-pyrazole-5-carboxamido)pyrrolidine-2-carboxamido)acetic acid; assay type: physicochemical

Row | SMILES | MIC90 [1] | IC50 [2] | growth inhibition (GI) [1] | Kinetic_solubility [3] | Stability [4]
1 | CCc1cc(C(=O)N[C@@H]2C[C@@H](C(=O)NC3CCOC3=O)N(C(=O)c3coc4ccccc34)C2)n(C)n1 (some centres undefined) | > 31 µM | 80 nM | – | – | –
2 | CCc1cc(C(=O)N[C@@H]2C[C@@H](C(=O)NCC(=O)NC)N(C(=O)c3coc4ccccc34)C2)n(C)n1 | – | – | Active | – | –
3 | CCc1cc(C(=O)N[C@@H]2C[C@@H](C(=O)NCCc3ccc(F)cc3)N(C(=O)c3coc4ccccc34)C2)n(C)n1 | 1 µM (≈ 0.532 µg/mL) | 6 nM | – | – | –
4 | CCc1cc(C(=O)N[C@@H]2C[C@@H](C(=O)O)N(C(=O)c3coc4ccccc34)C2)n(C)n1 | – | 1290 nM | – | – | –
5 | CCc1cc(C(=O)N[C@@H]2C[C@@H](C(=O)Nc3ccn(Cc4ccc(F)cc4)n3)N(C(=O)c3coc4ccccc34)C2)n(C)n1 | 4 µM (≈ 2.33 µg/mL) | 5 nM | – | – | –
6 | CCNC[C@@H]1C[C@@H](NC(=O)c2cc(CC)nn2C)CN1C(=O)c1coc2ccccc12 | > 31 µM | 440 nM | – | – | –
7 | CCc1cc(C(=O)N[C@@H]2C[C@@H](C(=O)OC)N(C(=O)c3coc4ccccc34)C2)n(C)n1 | – | 215 nM | – | – | –
8 | CCCn1nc(CC)cc1C(=O)N[C@@H]1C[C@@H](C(=O)NCC(=O)OC)N(C(=O)c2coc3ccccc23)C1 | 1 µM (≈ 0.51 µg/mL) | 11 nM | – | – | –
9 | COC(=O)CNC(=O)[C@@H]1C[C@@H](NC(=O)c2cc(CC(C)C)nn2C)CN1C(=O)c1coc2ccccc12 | > 31 µM | > 1000 nM | – | – | –
10 | CCc1cc(C(=O)N[C@@H]2C[C@@H](C(=O)N(CC)CC)N(C(=O)c3coc4ccccc34)C2)n(C)n1 | > 31 µM | 948 nM | – | – | –
11 | CCc1cc(C(=O)N[C@@H]2C[C@@H](C(=O)Nc3ccn(C)n3)N(C(=O)c3coc4ccccc34)C2)n(C)n1 | 4 µM (≈ 1.96 µg/mL) | 7 nM | – | – | –
12 | CCc1cc(C(=O)N[C@@H]2C[C@@H](C(=O)Nc3cnn(CC)n3)N(C(=O)c3coc4ccccc34)C2)n(C)n1 | 4 µM (≈ 2.02 µg/mL) | 3 nM | – | – | –
13 | CCc1cc(C(=O)N[C@@H]2C[C@@H](C(=O)NCc3ccccn3)N(C(=O)c3coc4ccccc34)C2)n(CC)n1 | 0.7 µM (≈ 0.36 µg/mL) | 2 nM | – | – | –
14 | CCc1cc(C(=O)N[C@@H]2C[C@@H](C(=O)NCc3cnc(C)cn3)N(C(=O)c3coc4ccccc34)C2)n(C)n1 | 8 µM (≈ 4.12 µg/mL) | 22 nM | – | – | –
15 | CCCc1cc(C(=O)N[C@@H]2C[C@@H](C(=O)NCC(=O)OC)N(C(=O)c3coc4ccccc34)C2)n(C)n1 | 0.5 µM (≈ 0.248 µg/mL) | 22 nM | – | – | –
16 | CCc1cc(C(=O)N[C@@H]2C[C@@H](C(=O)Nc3ccc4c(c3)B(O)OC4)N(C(=O)c3coc4ccccc34)C2)n(C)n1 | 4 µM (≈ 2.17 µg/mL) | 26 nM | – | – | –
17 | CCc1cc(C(=O)N[C@@H]2C[C@@H](C(=O)NCC(=O)OC)N(C(=O)c3coc4ccccc34)C2)n(C)n1 | 0.5 µM (≈ 0.241 µg/mL) | 5 nM | – | soluble | Unstable
18 | CCc1cc(C(=O)N[C@@H]2C[C@@H](C(=O)Nc3ccccn3)N(C(=O)c3coc4ccccc34)C2)n(C)n1 | 4 µM (≈ 1.95 µg/mL) | 11 nM | – | – | –
19 | CCc1cc(C(=O)N[C@@H]2C[C@@H](C(=O)NCc3nc(C)no3)N(C(=O)c3coc4ccccc34)C2)n(C)n1 | 2 µM (≈ 1.01 µg/mL) | 7 nM | – | – | –
20 | CCc1cc(C(=O)N[C@@H]2C[C@@H](C(=O)NCC(F)(F)F)N(C(=O)c3coc4ccccc34)C2)n(C)n1 | 4 µM (≈ 1.97 µg/mL) | 46 nM | – | – | –
21 | CCc1cc(C(=O)N[C@@H]2C[C@@H](C(=O)NCc3ccc(F)c(F)c3)N(C(=O)c3coc4ccccc34)C2)n(C)n1 | 2 µM (≈ 1.07 µg/mL) | 9 nM | – | – | –
22 | CCc1cc(C(=O)N[C@@H]2C[C@@H](C(=O)NCC3CCCO3)N(C(=O)c3coc4ccccc34)C2)n(C)n1 (some centres undefined) | 4 µM (≈ 1.97 µg/mL) | 45 nM | – | – | –
23 | CCc1cc(C(=O)N[C@@H]2C[C@@H](C(=O)NC3CCCC3)N(C(=O)c3coc4ccccc34)C2)n(C)n1 | 4 µM (≈ 1.91 µg/mL) | 40 nM | – | – | –
24 | CCc1cc(C(=O)N[C@@H]2C[C@@H](C(N)=O)N(C(=O)c3coc4ccccc34)C2)n(C)n1 | 3 µM (≈ 1.23 µg/mL) | 12 nM | – | – | –
25 | CCc1cc(C(=O)N[C@@H]2C[C@@H](C(=O)NCc3nc4ccccc4o3)N(C(=O)c3coc4ccccc34)C2)n(C)n1 | 0.5 µM (≈ 0.27 µg/mL) | 3 nM | – | – | –
26 | CCc1cc(C(=O)N[C@@H]2CCN(C(=O)c3coc4ccccc34)C2)n(C)n1 | > 31 µM | 120 nM | – | – | –
27 | CCc1cc(C(=O)N[C@@H]2C[C@@H](C(=O)NCC3OB(O)c4ccccc43)N(C(=O)c3coc4ccccc34)C2)n(C)n1 (some centres undefined) | 2 µM (≈ 1.11 µg/mL) | 35 nM | – | – | –
28 | CCNC(=O)[C@@H]1C[C@@H](NC(=O)c2cc(CC)nn2C)CN1C(=O)c1ccc2occc2c1 | – | 74 nM | – | – | –
